In ChEMBL document CHEMBL2016523, “Discovery of an orally-bioavailable CC Chemokine Receptor 2 antagonist derived from an acyclic diaminoalcohol backbone” (Bioorg Med Chem Lett, 2012):
Activity calls are given as the source filed them. The calls are words filed in the database; no cut-off is given here.

Organism: Mus musculus
Test: Selectivity for mouse CCR2 over mouse CCR1
Details: not given

Compound | Selectivity ratio
CCC[C@H](O)[C@H](CNCc1ccc(C)cc1C)NC(=O)CNC(=O)c1cc(C(F)(F)F)ccc1NC(=O)NCC | > 1000

Molecular target: T1, C-C chemokine receptor type 2 (Homo sapiens, UniProt P41597)
Test: Displacement of [125-I]MCP1 from CCR2 on human PBMC
Details: not given
Target sequence in this assay (P41597 whole entry): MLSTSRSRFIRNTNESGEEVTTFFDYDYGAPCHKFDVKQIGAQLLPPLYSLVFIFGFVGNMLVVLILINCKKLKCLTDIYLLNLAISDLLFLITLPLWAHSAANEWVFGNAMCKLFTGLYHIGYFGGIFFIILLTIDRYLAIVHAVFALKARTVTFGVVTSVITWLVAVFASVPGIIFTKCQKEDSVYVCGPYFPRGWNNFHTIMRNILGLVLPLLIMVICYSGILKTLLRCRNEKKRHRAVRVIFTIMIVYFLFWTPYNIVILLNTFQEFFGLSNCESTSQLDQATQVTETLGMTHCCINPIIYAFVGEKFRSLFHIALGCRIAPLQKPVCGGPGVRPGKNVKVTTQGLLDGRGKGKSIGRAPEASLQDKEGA

Compound | IC50 [µM]
CCC[C@H](O)[C@H](CNCc1ccc(C)cc1C)NC(=O)CC(=O)Nc1cc(C(F)(F)F)ccc1OC | 0.217
CCC[C@H](O)[C@H](CNCc1ccc(C)cc1C)NC(=O)CNC(=O)c1cc(C(F)(F)F)ccc1NC(=O)NCC | 0.0036
CCC[C@H](O)[C@H](CNCc1ccc(C)cc1C)NC(=O)CC(=O)Nc1cc(C(F)(F)F)ccc1NC(=O)OC(C)(C)C | 0.24
CCC(O)(CC)[C@H](CNCc1ccc(C)cc1C)NC(=O)CNC(=O)c1cc(C(F)(F)F)ccc1N | 0.041
CCC[C@H](O)[C@H](CNCc1ccc(C)cc1C)N1CC[C@H](NC(=O)c2cc(N)cc(C(F)(F)F)c2)C1=O | 1.23
Cc1ccc(CNC[C@H](NC(=O)CNC(=O)c2cc(C(F)(F)F)ccc2N)C(C)(C)O)c(C)c1 | 0.16
Cc1ccc(CNC[C@H](NC(=O)CNC(=O)c2cccc(C(F)(F)F)c2)[C@H](O)C(C)C)c(C)c1 | 0.1
CCC[C@H](O)[C@H](CNCc1ccc(C)cc1C)NC(=O)CC(=O)Nc1cc(N)cc(C(F)(F)F)c1 | 0.0038
CC[C@H](O)[C@H](CNCc1ccc(C)cc1C)NC(=O)CNC(=O)c1cc(C(F)(F)F)ccc1N | 0.017
CCC[C@H](O)[C@H](CNCc1ccc(C)cc1C)NC(=O)Cc1nc2c(C(F)(F)F)cccc2[nH]1 | 0.049
CCC[C@H](O)[C@H](CNCc1ccc(C)cc1C)NC(=O)CNC(=O)c1cc(C(F)(F)F)ccc1NC(=O)NC | 0.0067
CCC[C@H](O)[C@H](CNCc1ccc(C)cc1C)NC(=O)CC(=O)Nc1cc(NC(=O)NCC)cc(C(F)(F)F)c1 | 0.04
CCC[C@H](O)[C@H](CNCc1ccc(C)cc1C)NC(=O)CNC(=O)c1cc(C(F)(F)F)ccc1NC(=O)N1CCC1 | 0.0021
CCC[C@H](O)[C@H](CNCc1ccc(C)cc1C)NC(=O)CNC(=O)c1cc(C(F)(F)F)ccc1NC(=O)N1CCNCC1 | 0.0025
Cc1ccc(CNC[C@H](NC(=O)CNC(=O)c2cccc(C(F)(F)F)c2)[C@@H](O)CC(C)(C)C)c(C)c1 | 0.019
CCC[C@H](O)[C@H](CNCc1ccc(C)cc1C)NC(=O)CNC(=O)c1cc(C(F)(F)F)ccc1NC(=O)OC(C)(C)C | 0.004
Cc1ccc(CNC[C@H](NC(=O)CNC(=O)c2cccc(C(F)(F)F)c2)[C@@H](O)c2ccccc2)c(C)c1 | 0.1
CCC[C@H](O)[C@H](CN(Cc1ccc(C)cc1C)C(C)C)NC(=O)CNC(=O)c1cc(C(F)(F)F)ccc1NC(=O)NC(C)C | 1.7
CCC[C@H](O)[C@H](CNCc1ccc(C)cc1C)NC(=O)CNC(=O)c1cc(N)cc(C(F)(F)F)c1 | 0.0067
CCC[C@H](O)[C@H](CNCc1ccc(C)cc1C)NC(=O)CNC(=O)c1cc(C(F)(F)F)ccc1NCc1ccccc1 | 0.0093
CCC[C@H](O)[C@H](CN(C)Cc1ccc(C)cc1C)NC(=O)CNC(=O)c1cc(C(F)(F)F)ccc1NC(=O)NC(C)C | 0.44
CCC[C@H](O)[C@H](CNCc1ccc(C)cc1C)NC(=O)CNC(=O)c1cc(C(F)(F)F)ccc1NC(C)(C)C | 0.0074
CCC[C@H](OC)[C@H](CNCc1ccc(C)cc1C)NC(=O)CNC(=O)c1cc(C(F)(F)F)ccc1N | 0.011
Cc1ccc(CNC[C@H](NC(=O)CNC(=O)c2cccc(C(F)(F)F)c2)[C@H](O)c2ccccc2)c(C)c1 | > 1
CCCC(O)(CCC)[C@H](CNCc1ccc(C)cc1C)NC(=O)CNC(=O)c1cc(C(F)(F)F)ccc1N | 0.027
CCC[C@H](O)[C@H](CNCc1ccc(C)cc1C)NC(=O)CC(=O)Nc1cc(C(F)(F)F)cc(C(F)(F)F)c1 | 0.69

Compound | IC50 [µM]
CCC[C@H](O)[C@H](CNCc1ccc(C)cc1C)NC(=O)CC(=O)Nc1cc(OC)cc(C(F)(F)F)c1 | 0.024
CCCNc1cc(NC(=O)CC(=O)N[C@@H](CNCc2ccc(C)cc2C)[C@@H](O)CCC)cc(C(F)(F)F)c1 | 0.02
CCC[C@H](O)[C@H](CNCc1ccc(C)cc1C)NC(=O)CC(=O)Nc1cccc(C(F)(F)F)c1 | 0.028
CCC[C@H](O)[C@H](CNCc1ccc(C)cc1C)NC(=O)CC(=O)Nc1cc(Br)cc(C(F)(F)F)c1 | 0.71
Cc1ccc(CNC[C@H](NC(=O)CNC(=O)c2cccc(C(F)(F)F)c2)[C@@H](O)C(C)C)c(C)c1 | 0.065
CC[C@H](O)[C@H](CNCc1ccc(C)cc1C)NC(=O)CNC(=O)c1cccc(C(F)(F)F)c1 | 0.064
CCC[C@@H](O)[C@H](CNCc1ccc(C)cc1C)NC(=O)CNC(=O)c1cc(C(F)(F)F)ccc1N | 0.007
CCC[C@H](O)[C@H](CNCc1ccc(C)cc1C)NC(=O)CC(=O)Nc1cc(NC)cc(C(F)(F)F)c1 | 0.0071
CCC[C@H](O)[C@H](CNCc1ccc(C)cc1C)NC(=O)CNC(=O)c1cc(C(F)(F)F)ccc1NC(=O)N1CCOCC1 | 0.0038
CCC[C@H](O)[C@H](CNCc1ccc(C)cc1C)N1CC[C@H](NC(=O)c2cc(C(F)(F)F)ccc2NC(=O)OC(C)(C)C)C1=O | 1.04
CCC[C@H](O)[C@H](CNCc1ccc(C)cc1C)N1CC[C@H](NC(=O)c2cc(C(F)(F)F)ccc2N)C1=O | 0.9
CCC[C@H](O)[C@H](CNCc1ccc(C)cc1C)NC(=O)CNC(=O)c1cc(C(F)(F)F)ccc1N | 0.0034
CCC[C@H](O)[C@H](CNCc1ccc(C)cc1C)NC(=O)CNc1n[nH]c2ccc(C(F)(F)F)cc12 | 0.01
Cc1ccc(CNC[C@H](NC(=O)CNC(=O)c2cccc(C(F)(F)F)c2)[C@H](O)CC(C)(C)C)c(C)c1 | 0.6
CCC[C@H](O)[C@H](CNCc1ccc(C)cc1C)NC(=O)CC(=O)Nc1cc(NC(=O)OC(C)(C)C)cc(C(F)(F)F)c1 | 0.34
CCC[C@H](O)[C@H](CNCc1ccc(C)cc1C)NC(=O)CNC(=O)c1cc(C(F)(F)F)ccc1NC(=O)N1CCCC1 | 0.0058
CC[C@@H](O)[C@H](CNCc1ccc(C)cc1C)NC(=O)CNC(=O)c1cccc(C(F)(F)F)c1 | 0.39
CCC[C@H](O)[C@H](CNCc1ccc(C)cc1C)NC(=O)CC(=O)Nc1cc(C(=O)NCC)cc(C(F)(F)F)c1 | 0.158
CCC[C@H](O)[C@H](CNCc1ccc(C)cc1C)NC(=O)CC(=O)Nc1cc(C(F)(F)F)ccc1N | 0.043
CCC[C@H](O)[C@H](CNCc1ccc(C)cc1C)N1CC[C@@H](NC(=O)c2cc(C(F)(F)F)ccc2NC(=O)OC(C)(C)C)C1=O | 28
CCC[C@H](O)[C@H](CNCc1ccc(C)cc1C)NC(=O)CC(=O)Nc1cc(NCC)cc(C(F)(F)F)c1 | 0.0045
Cc1ccc(CNC[C@H](NC(=O)CNC(=O)c2cc(C(F)(F)F)ccc2N)C2(O)CCCC2)c(C)c1 | 0.087
CCC[C@H](O)[C@H](CNCc1ccc(C)cc1C)NC(=O)CNC(=O)c1cc(C(F)(F)F)ccc1NC(C)C | 0.0053
CCCC[C@@H](O)[C@H](CNCc1ccc(C)cc1C)NC(=O)CNC(=O)c1cccc(C(F)(F)F)c1 | 0.18
CCCC[C@H](O)[C@H](CNCc1ccc(C)cc1C)NC(=O)CNC(=O)c1cccc(C(F)(F)F)c1 | 0.005

Molecular target: C-C chemokine receptor type 2 (Mus musculus) (UniProt P51683)
Test: Binding affinity to mouse CCR2
Details: not given

Sequence of C-C chemokine receptor type 2 (Mus musculus) (P51683 whole entry, looked up): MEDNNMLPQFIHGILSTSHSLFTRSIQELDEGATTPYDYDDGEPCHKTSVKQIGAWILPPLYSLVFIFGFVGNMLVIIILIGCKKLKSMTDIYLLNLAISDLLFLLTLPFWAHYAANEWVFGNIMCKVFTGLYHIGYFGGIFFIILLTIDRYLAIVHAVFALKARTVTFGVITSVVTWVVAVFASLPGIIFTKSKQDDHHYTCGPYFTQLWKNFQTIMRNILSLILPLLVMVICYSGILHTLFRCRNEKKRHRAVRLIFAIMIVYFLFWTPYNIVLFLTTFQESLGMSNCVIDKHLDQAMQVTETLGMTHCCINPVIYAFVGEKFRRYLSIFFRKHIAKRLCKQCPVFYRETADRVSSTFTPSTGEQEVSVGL

Compound | inhibition
CCC[C@H](O)[C@H](CNCc1ccc(C)cc1C)NC(=O)CNC(=O)c1cc(C(F)(F)F)ccc1NC(=O)NCC | Active
Cc1ccc(CNC[C@H](NC(=O)CNC(=O)c2cccc(C(F)(F)F)c2)[C@@H](O)CC(C)C)c(C)c1 | inactive
CCC[C@H](O)[C@H](CNCc1ccc(C)cc1C)NC(=O)CNC(=O)c1cc(C(F)(F)F)ccc1NC(=O)OC(C)(C)C | Active
Cc1ccc(CNC[C@H](NC(=O)CNC(=O)c2cccc(C(F)(F)F)c2)[C@H](O)CC(C)C)c(C)c1 | inactive
CCC[C@H](O)[C@H](CNCc1ccc(C)cc1C)NC(=O)CNC(=O)c1cccc(C(F)(F)F)c1 | Active
CCC[C@@H](O)[C@H](CNCc1ccc(C)cc1C)NC(=O)CNC(=O)c1cc(C(F)(F)F)ccc1N | inactive
CCC[C@H](O)[C@H](CNCc1ccc(C)cc1C)NC(=O)CNC(=O)c1cc(C(F)(F)F)ccc1N | Active

Test system: not listed separately
Test: Oral bioavailability in mouse
Type: ADME, organism-based
Details: in vivo

Compound | bioavailability [%]
CCC[C@H](O)[C@H](CNCc1ccc(C)cc1C)NC(=O)CNC(=O)c1cc(C(F)(F)F)ccc1NC(=O)NCC | 29

Molecular target: C-C chemokine receptor type 2 (Mus musculus) (UniProt P51683)
Test: Antagonist activity at CCR2 in mouse monocytes assessed as inhibition of MCP1-induced calcium flux
Type: functional, cell-based
Details: not given

Compound | Activity
CCC[C@H](O)[C@H](CNCc1ccc(C)cc1C)NC(=O)CNC(=O)c1cc(C(F)(F)F)ccc1NC(=O)NCC | Active

Molecular target: T1, C-C chemokine receptor type 2
Test: Displacement of [125-I]MCP1 from CCR2 on human PBMC at 1 uM
Details: not given
Target sequence in this assay (P41597 whole entry, looked up): as the sequence (P41597 whole entry) above

Compound | inhibition (INH) [%]
CCC[C@H](O)[C@H](CNCc1ccc(C)cc1C)NC(=O)Cc1nc2ccc(C(F)(F)F)cc2[nH]1 | 6

Molecular target: C-C chemokine receptor type 5 (Mus musculus, UniProt P51682)
Test: Binding affinity to mouse CCR5
Details: not given

Sequence of C-C chemokine receptor type 5 (P51682 whole entry): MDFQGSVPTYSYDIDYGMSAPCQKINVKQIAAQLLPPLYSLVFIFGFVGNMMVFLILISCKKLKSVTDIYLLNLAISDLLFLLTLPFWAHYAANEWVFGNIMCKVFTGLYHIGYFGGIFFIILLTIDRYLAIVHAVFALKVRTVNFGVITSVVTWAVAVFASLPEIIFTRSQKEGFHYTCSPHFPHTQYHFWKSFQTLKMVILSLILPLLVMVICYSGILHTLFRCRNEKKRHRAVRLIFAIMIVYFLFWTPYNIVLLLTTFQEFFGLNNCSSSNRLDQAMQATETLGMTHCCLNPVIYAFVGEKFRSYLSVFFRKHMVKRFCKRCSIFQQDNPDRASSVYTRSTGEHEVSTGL

Compound | IC50 [µM]
CCC[C@H](O)[C@H](CNCc1ccc(C)cc1C)NC(=O)CNC(=O)c1cc(C(F)(F)F)ccc1NC(=O)NCC | 0.086

Test system: not listed separately
Test: Clearance in mouse
Type: ADME, organism-based
Details: in vivo

Compound | clearance [mL/min/kg]
CCC[C@H](O)[C@H](CNCc1ccc(C)cc1C)NC(=O)CNC(=O)c1cc(C(F)(F)F)ccc1NC(=O)NCC | 85

Organism: Mus musculus
Test: Selectivity for mouse CCR2 over mouse CCR2
Details: not given

Compound | Selectivity ratio
CCC[C@H](O)[C@H](CNCc1ccc(C)cc1C)NC(=O)CNC(=O)c1cc(C(F)(F)F)ccc1NC(=O)NCC | > 1000

Molecular target: C-C chemokine receptor type 2 (Mus musculus) (UniProt P51683)
Test: Antagonist activity at CCR2 in mouse monocytes assessed as inhibition of MCP1-induced cAMP depression
Type: functional, cell-based
Details: not given

Compound | Activity
CCC[C@H](O)[C@H](CNCc1ccc(C)cc1C)NC(=O)CNC(=O)c1cc(C(F)(F)F)ccc1NC(=O)NCC | Active
